Measurements published in PubChem BioAssay AID248 (DTP/NCI, 2004).
Inconclusive results and toxic doses are left out. No stated cut-off is given here; in the data, active means T/C of 150% or more; inactive means T/C below 125%.

Test system: L1210 leukemia ip in BDF1 mice, survival T/C
Test: NCI In Vivo Anticancer Drug Screen. Data for tumor model L1210 Leukemia (intraperitoneal) in B6D2F1 (BDF1) mice
Conditions: endpoint: mean survival time, higher = longer survival
Procedure, shortened: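 Mice bearing the transplanted tumor received compound or vehicle. Survival of the treated group was divided by that of the vehicle-treated control group to give the ratio.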

[1] = dose: 100.0 mg/kg/injection, schedule: Q04DX003 (ip), vehicle: saline
[2] = dose: 200.0 mg/kg/injection, schedule: Q04DX003 (ip), vehicle: saline
[3] = dose: 400.0 mg/kg/injection, schedule: Q04DX003 (ip), vehicle: saline
[4] = dose: 75.0 mg/kg/injection, schedule: Q01DX001 (ip), vehicle: saline
[5] = dose: 150.0 mg/kg/injection, schedule: Q01DX001 (ip), vehicle: saline
[6] = dose: 100.0 mg/kg/injection, schedule: Q01DX009 (ip), vehicle: saline with Tween-80
[7] = dose: 200.0 mg/kg/injection, schedule: Q01DX009 (ip), vehicle: saline with Tween-80
[8] = dose: 100.0 mg/kg/injection, schedule: Q01DX001 (ip), vehicle: carboxymethylcellulose (CMC)
[9] = dose: 200.0 mg/kg/injection, schedule: Q01DX001 (ip), vehicle: carboxymethylcellulose (CMC)
[10] = dose: 400.0 mg/kg/injection, schedule: Q01DX001 (ip), vehicle: carboxymethylcellulose (CMC)
[11] = dose: 100.0 mg/kg/injection, schedule: Q04DX003 (ip), vehicle: saline with Tween-80
[12] = dose: 400.0 mg/kg/injection, schedule: Q04DX003 (ip), vehicle: saline with Tween-80

Measured: T/C

CNC(=N)c1ccc(NC(=N)c2ccc(NC(=O)Nc3cccc(NC(=O)Nc4ccc(C(=N)Nc5ccc(C(=N)NC)cc5)cc4)c3)cc2)cc1
active: dose: 1.0 mg/kg/injection, schedule: Q01DX Z (ip), vehicle: water 154 % of control | dose: 2.0 mg/kg/injection, schedule: Q01DX Z (ip), vehicle: water 158 % of control | dose: 3.5 mg/kg/injection, schedule: Q01DX Z (ip), vehicle: water 150 % of control | dose: 4.0 mg/kg/injection, schedule: Q01DX Z (ip), vehicle: water 150 % of control | dose: 5.0 mg/kg/injection, schedule: Q01DX015 (ip), vehicle: water 162 % of control | dose: 7.0 mg/kg/injection, schedule: Q01DX Z (ip), vehicle: water 172 % of control | dose: 7.5 mg/kg/injection, schedule: Q01DX015 (ip), vehicle: water 203 % of control | dose: 10.0 mg/kg/injection, schedule: Q01DX015 (ip), vehicle: water 241 % of control | dose: 10.0 mg/kg/injection, schedule: Q01DX Z (ip), vehicle: water 236 % of control | dose: 14.25 mg/kg/injection, schedule: Q01DX Z (ip), vehicle: water 193 % of control | dose: 15.0 mg/kg/injection, schedule: Q01DX015 (ip), vehicle: water 340 % of control
inactive: dose: 0.31 mg/kg/injection, schedule: Q01DX015 (ip), vehicle: water 103 % of control | dose: 0.62 mg/kg/injection, schedule: Q01DX015 (ip), vehicle: water 115 % of control | dose: 28.5 mg/kg/injection, schedule: Q01DX Z (ip), vehicle: water 92 % of control

CN(C(=O)OCc1ccccc1)C(Cc1ccccc1)C(=O)O (configuration not stated)
inactive: dose: 100.0 mg/kg/injection, schedule: Q01DX001 (ip), vehicle: other 95 % of control | dose: 200.0 mg/kg/injection, schedule: Q01DX001 (ip), vehicle: other 96 % of control

Cc1cc2nc(CBr)c(CBr)nc2cc1C
inactive: dose: 3.12 mg/kg/injection, schedule: Q01DX009 (ip), vehicle: acetone 100 % of control | dose: 6.25 mg/kg/injection, schedule: Q01DX009 (ip), vehicle: acetone 94 % of control | dose: 6.25 mg/kg/injection, schedule: Q04DX003 (ip), vehicle: Klucel (hydroxypropylcellulose) (HPC) 95 % of control | dose: 12.5 mg/kg/injection, schedule: Q04DX003 (ip), vehicle: Klucel (hydroxypropylcellulose) (HPC) 101 % of control | dose: 12.5 mg/kg/injection, schedule: Q04DX003 (ip), vehicle: saline with Tween-80 98 % of control | dose: 25.0 mg/kg/injection, schedule: Q04DX003 (ip), vehicle: Klucel (hydroxypropylcellulose) (HPC) 93 % of control

O=C(Nc1cccc(C(F)(F)F)c1)C(O)C(O)C(O)C(O)CO (configuration not stated)
inactive: [1] 91 % of control | [2] 94 % of control | [3] 91 % of control

CN=C(N)c1ccc(NC(=O)Nc2ccc(NC(=O)Nc3ccc(C(N)=NC)cc3)cc2)cc1
inactive: dose: 50.0 mg/kg/injection, schedule: Q01DX Z (oral), vehicle: saline 95 % of control | dose: 100.0 mg/kg/injection, schedule: Q01DX Z (oral), vehicle: saline 89 % of control | dose: 200.0 mg/kg/injection, schedule: Q01DX Z (oral), vehicle: saline 95 % of control | dose: 240.0 mg/kg/injection, schedule: Q01DX Z (ip), vehicle: saline 108 % of control | dose: 400.0 mg/kg/injection, schedule: Q01DX Z (oral), vehicle: saline 96 % of control | dose: 480.0 mg/kg/injection, schedule: Q01DX Z (ip), vehicle: saline 90 % of control
active: dose: 60.0 mg/kg/injection, schedule: Q01DX Z (ip), vehicle: saline 157 % of control | dose: 120.0 mg/kg/injection, schedule: Q01DX Z (ip), vehicle: saline 205 % of control

Cc1cc(C)c2ccc(NC(=O)CCC(=O)O)nc2n1
inactive: dose: 100.0 mg/kg/injection, schedule: Q01DX001 (ip), vehicle: saline 95 % of control

C#CC1(OC(O)C(Cl)(Cl)Cl)CCCCC1 (configuration not stated)
inactive: [1] 103 % of control | [2] 106 % of control | [3] 103 % of control

CON(C)S(=O)(=O)c1ccccc1
inactive: dose: 100.0 mg/kg/injection, schedule: Q04DX003 (ip), vehicle: Klucel (hydroxypropylcellulose) (HPC) 103 % of control | dose: 200.0 mg/kg/injection, schedule: Q04DX003 (ip), vehicle: Klucel (hydroxypropylcellulose) (HPC) 97 % of control | dose: 400.0 mg/kg/injection, schedule: Q04DX003 (ip), vehicle: Klucel (hydroxypropylcellulose) (HPC) 95 % of control

CSc1cc(C)c(O)c(C)c1
inactive: dose: 100.0 mg/kg/injection, schedule: Q01DX009 (ip), vehicle: other 98 % of control | dose: 200.0 mg/kg/injection, schedule: Q01DX009 (ip), vehicle: other 101 % of control

CCC1(O)C(=O)OCc2c1ccn(C)c2=O (configuration not stated)
inactive: dose: 18.7 mg/kg/injection, schedule: Q01DX001 (ip), vehicle: saline 113 % of control | dose: 37.5 mg/kg/injection, schedule: Q01DX001 (ip), vehicle: saline 105 % of control | [4] 102 % of control | [5] 102 % of control

CC(=O)Nc1cc([N+](=O)[O-])cc(C)c1O
inactive: [6] 97 % of control | [7] 89 % of control

CCOP(=O)(NC(C)(C)C)OCC
inactive: dose: 50.0 mg/kg/injection, schedule: Q01DX001 (ip), vehicle: carboxymethylcellulose (CMC) 107 % of control | [8] 107 % of control | [9] 105 % of control | [10] 100 % of control

CC(C)(C[NH-])C[NH-].CC(C)(C[NH-])C[NH-].CC(C)(C[NH-])C[NH-].[Co]
inactive: dose: 48.0 mg/kg/injection, schedule: Q01DX Z (ip), vehicle: saline 121 % of control | dose: 73.0 mg/kg/injection, schedule: Q01DX Z (ip), vehicle: saline 121 % of control | dose: 110.0 mg/kg/injection, schedule: Q01DX Z (ip), vehicle: saline 119 % of control | dose: 165.0 mg/kg/injection, schedule: Q01DX Z (ip), vehicle: saline 116 % of control

O=C1/C(=C\c2ccccc2Cl)N2CCC1CC2
inactive: dose: 100.0 mg/kg/injection, schedule: Q01DX001 (ip), vehicle: saline with Tween-80 94 % of control | dose: 200.0 mg/kg/injection, schedule: Q01DX001 (ip), vehicle: saline with Tween-80 109 % of control | dose: 400.0 mg/kg/injection, schedule: Q01DX001 (ip), vehicle: saline with Tween-80 93 % of control

COC(=O)C(O)c1ccc2c(c1)OCO2 (configuration not stated)
inactive: dose: 100.0 mg/kg/injection, schedule: Q04DX003 (ip), vehicle: saline sonified 97 % of control | dose: 200.0 mg/kg/injection, schedule: Q04DX003 (ip), vehicle: saline sonified 97 % of control | dose: 400.0 mg/kg/injection, schedule: Q04DX003 (ip), vehicle: saline sonified 93 % of control

COc1ccc([N+](=O)[O-])c(C=O)c1
inactive: dose: 100.0 mg/kg/injection, schedule: Q01DX009 (ip), vehicle: saline 101 % of control | [1] 97 % of control | dose: 200.0 mg/kg/injection, schedule: Q01DX009 (ip), vehicle: saline 98 % of control | [2] 100 % of control | dose: 400.0 mg/kg/injection, schedule: Q01DX009 (ip), vehicle: saline 101 % of control | [3] 103 % of control

CCCCCCCCCCCC(=O)Nc1ccccc1
inactive: dose: 12.5 mg/kg/injection, schedule: Q01DX009 (ip), vehicle: Klucel (hydroxypropylcellulose) (HPC) 92 % of control | dose: 25.0 mg/kg/injection, schedule: Q01DX009 (ip), vehicle: Klucel (hydroxypropylcellulose) (HPC) 90 % of control | dose: 50.0 mg/kg/injection, schedule: Q01DX009 (ip), vehicle: Klucel (hydroxypropylcellulose) (HPC) 110 % of control

O=S(=O)(Cc1ccccc1)SSS(=O)(=O)Cc1ccccc1
inactive: [4] 98 % of control | [5] 106 % of control | dose: 300.0 mg/kg/injection, schedule: Q01DX001 (ip), vehicle: saline 95 % of control

COC(=O)C(CSCSC)NC(=O)/C=C/c1ccc(C)cc1 (configuration not stated)
inactive: [6] 102 % of control | [11] 93 % of control | [7] 101 % of control | dose: 400.0 mg/kg/injection, schedule: Q01DX009 (ip), vehicle: saline with Tween-80 91 % of control | [12] 91 % of control

Cc1ccccc1NC(=O)NO
inactive: [8] 103 % of control | [9] 100 % of control | [10] 105 % of control

CCCCN(C)c1ccc(N=Nc2cc(Cl)ccc2Cl)cc1
inactive: [11] 98 % of control | [12] 86 % of control

NC(=Nc1ccc([N+](=O)[O-])cc1)c1ccccc1
inactive: [11] 98 % of control | dose: 200.0 mg/kg/injection, schedule: Q04DX003 (ip), vehicle: saline with Tween-80 102 % of control | [12] 100 % of control
